Patent US10525017B2, “Composition containing meso-2,3-butanediol” (Amorepacific Corporation, priority 2014, dated 2020)

Assays:
[1] = tested on: Aspergillus niger (ATCC 16404); test: Antibacterial activity test (MIC); format: cell-based; settings: broth culture, 25 to 32° C., 24 to 72 hours; tested 0.01 to 10% (v/v)
Protocol: (§1) In order to compare the antibacterial activities by the position and stereoscopic orientation of the hydroxyl group of the diol, the antibacterial activities (minimum inhibitory concentration, MIC) against the samples described in Table 1 below, that is, six kinds of diols such as 1,3-butanediol, were measured.
(§2) The antibacterial activity measurement tests were performed using bacteria, yeasts and molds, such as Escherichia coli (ATCC 8739), Pseudomonas aeruginosa (ATCC 9027), Staphylococcus aureus (ATCC 6538), Candida albicans (ATCC 10231), and Aspergillus niger; (ATCC 16404). Respective substances or the like were added to Tryptic Soy broth and Sabouraud Dextrose (SD) broth at a concentration of 0.01 to 10% (v/v), the culture solution was prepared in a liquid phase, and the bacteria, yeasts, and molds were inoculated, and then cultured at 25 to 32° C. for 24 to 72 hours to observe the state of the bacteria.

[2] = tested on: Candida albicans (ATCC 10231); test: Antibacterial activity test (MIC); format: cell-based; settings: broth culture, 25 to 32° C., 24 to 72 hours; tested 0.01 to 10% (v/v)
Protocol: as §1, §2

[3] = tested on: Escherichia coli (ATCC 8739); test: Antibacterial activity test (MIC); format: cell-based; settings: broth culture, 25 to 32° C., 24 to 72 hours; tested 0.01 to 10% (v/v)
Protocol: as §1, §2

[4] = tested on: Pseudomonas aeruginosa (ATCC 9027); test: Antibacterial activity test (MIC); format: cell-based; settings: broth culture, 25 to 32° C., 24 to 72 hours; tested 0.01 to 10% (v/v)
Protocol: as §1, §2

[5] = tested on: Staphylococcus aureus (ATCC 6538); test: Antibacterial activity test (MIC); format: cell-based; settings: broth culture, 25 to 32° C., 24 to 72 hours; tested 0.01 to 10% (v/v)
Protocol: as §1, §2

[6] = Skin irritation test, 24 h patch test; format: in vivo, human
Protocol: In order to evaluate the skin safety of a human body on 1,3-butanediol, 1,2-butanediol and 1,2-hexanediol (conventionally used diol), which are similar to meso-2,3-butanediol, S,S-2,3-butanediol and R,R-2,3-butanediol that are stereoisomers of 2,3-butanediol except that the position of a hydroxy group is different, the patch test was carried out for 24 hours. The patch was attached to the upper part of the subject's back, and 20 μl of the prepared test substance was applied to the patch using an IQ chamber (chemotechique, Sweeden). The patch was attached and after the lapse of 24 hours, the patch was removed. After removal of the patch, the first reading was performed after 30 minutes, and the second reading was performed after 24 hours.
In order to investigate the intensity of the skin irritation of the samples, weighting values were given according to the degree of positive reaction of the skin, skin average reactivity was determined, and the skin irritation of the sample was judged. The skin average reactivity was calculated using the mathematical formula 1 below, and the determination criteria are as shown in Table 5 below.

[7] = Content 30%, 20 μl, 24 h patch on back, less than 1 = no irritation, 1-3 mild, 3-5 moderate

Row | Structure (SMILES) | minimum inhibitory concentration, MIC, A. niger [1] | minimum inhibitory concentration, MIC, C. albicans [2] | minimum inhibitory concentration, MIC, E. coli [3] | minimum inhibitory concentration, MIC, P. aeruginosa [4] | minimum inhibitory concentration, MIC, S. aureus [5] | Skin irritation Score (skin average reactivity) [6, 7] | Skin irritation Score (skin average reactivity) ([6]; human, in vivo, 24 h, 20 %) | Skin irritation Score (skin average reactivity) ([6]; human, in vivo, 24 h, 30 %) | numerical value of skin irritation, in words ([6]; in vivo)
1 | CCC(O)CO (stereo not shown) [1,2-butanediol] | 2.5 % (v/v) | 5 % (v/v) | 5 % (v/v) | 2.5 % (v/v) | 1.25 % (v/v) | 2.48 |  |  | 
2 | CCCCC(O)CO (stereo not shown) [1,2-hexanediol] | 0.625 % (v/v) | 1.25 % (v/v) | 1.25 % (v/v) | 1.25 % (v/v) | 2.5 % (v/v) |  | 2.54 |  | 
3 | CC(O)CCO (stereo not shown) [1,3-butanediol] | >10 % (v/v) | >10 % (v/v) | >10 % (v/v) | >10 % (v/v) | >10 % (v/v) | 0.52 |  |  | 
4 | C[C@H](O)[C@@H](C)O [Meso-2,3-butanediol, meso-2,3-butanediol] | 1.25 % (v/v) | 2.5 % (v/v) | 1.25 % (v/v) | 2.5 % (v/v) | 5 % (v/v) |  |  | 0.41 | lower
5 | C[C@@H](O)[C@@H](C)O [R,R-2,3-butanediol] | 5 % (v/v) | 5 % (v/v) | 2.5 % (v/v) | 5 % (v/v) | 10 % (v/v) |  |  | 1.45 | 
6 | C[C@H](O)[C@H](C)O [S,S-2,3-butanediol] | 1.25 % (v/v) | 5 % (v/v) | 5 % (v/v) | 5 % (v/v) | 2.5 % (v/v) |  |  | 2.12 | 
